In patent US9326513B2, “Fungicidal compositions” (Syngenta Participations AG, priority 2011, dated 2016):

Experiments:
Type in all cases: in vivo
Settings in all cases: foliar, compared to untreated control leaf disks, read-out: disease control
[1] = system: Blumeria graminis f. sp. tritici (Erysiphe graminis f. sp. tritici); assay: Blumeria graminis f. sp. tritici / wheat / leaf disc preventative (powdery mildew on wheat)
In short: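 Preventative leaf-disc test: compound (200 ppm) was sprayed onto cv. Kanzler wheat segments, which were dusted with conidia from infected plants 1 day after application. After incubation at 20° C and 60% rh, disease control relative to untreated segments was rated 6-8 days after application.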

[2] = system: Puccinia recondita f. sp. tritici; assay: Puccinia recondita f. sp. tritici / wheat / leaf disc preventative (brown rust)
Excerpt: Puccinia recondita f. sp. tritici/Wheat/Leaf Disc Preventative (Brown Rust) Wheat leaf segments cv. Kanzler were placed on agar in multiwell plates (24-well format) and sprayed with the formulated test compound diluted in water. The leaf disks were inoculated with a spore suspension of the fungus 1 day after application.

[3] = system: Puccinia recondita f. sp. tritici; assay: Puccinia recondita f. sp. tritici / wheat / leaf disc curative (brown rust)
Experimental: Puccinia recondita f. sp. tritici/Wheat/Leaf Disc Curative (Brown Rust) Wheat leaf segments cv. Kanzler are placed on agar in multiwell plates (24-well format). The leaf segments are inoculated with a spore suspension of the fungus. Plates were stored in darkness at 19° C. and 75% rh. The formulated test compound diluted in water was applied 1 day after inoculation.

[4] = system: Pyrenophora teres; assay: Pyrenophora teres / barley / leaf disc preventative (net blotch)
Excerpt: Pyrenophora teres/Barley/Leaf Disc Preventative (Net Blotch) Barley leaf segments cv. Hasso were placed on agar in a multiwell plate (24-well format) and sprayed with the formulated test compound diluted in water. The leaf segments were inoculated with a spore suspension of the fungus 2 days after application.

Measured: pest or weed control at 200 ppm

CCN(C)/C=N/c1cc(Br)c(OCc2cccc(C(C)F)c2)nc1C (stereo not drawn) [Q.291]
≥ 50%: all assays above

CCN(C)/C=N/c1cc(C)c(O[C@H]2CC[C@@H](C(C)C)CC2)nc1C [Q.186]
≥ 50%: all assays above

CCN(C)/C=N/c1cc(Br)c(OC2Cc3ccc(OCc4ccccc4)cc3C2)nc1C (stereo not drawn) [Q.168]
≥ 50%: all assays above

CCN(C)/C=N/c1cc(Br)c(OCCc2ccccc2)nc1C [Q.099]
≥ 50%: all assays above

CCN(C)/C=N/c1cc(C2CC2)c(OC(C)c2cc(F)cc(F)c2)nc1C (stereo not drawn) [Q.216]
≥ 50%: all assays above

CCN(C)/C=N/c1cc(C2CC2)c(O[C@H]2CC[C@@H](C(C)C)CC2)nc1C [Q.249]
≥ 50%: all assays above

CCN(C)/C=N/c1cc(Br)c(OC(C)Cc2cc(F)cc(F)c2)nc1C (stereo not drawn) [Q.217]
≥ 50%: all assays above

CCN(C)/C=N/c1cc(C(C)C)c(OC(C)c2cc(F)cc(F)c2)nc1C (stereo not drawn) [Q.280]
≥ 50%: all assays above

CCN(C)/C=N/c1cc(Br)c(OC2CCCC(Oc3ccccn3)C2)nc1C (stereo not drawn) [Q.240]
≥ 50%: all assays above

CCN(C)/C=N/c1cc(OC)c(OC(C)c2cc(F)cc(F)c2)nc1C (stereo not drawn) [Q.214]
≥ 50%: all assays above

CCN(C)/C=N/c1cc(Br)c(OCc2snc(-c3ccc(F)cc3)c2Cl)nc1C [Q.124]
≥ 50%: all assays above

CCN(C)/C=N/c1cc(Br)c(OC2CCC(=O)C=C2C)nc1C (stereo not drawn) [Q.282]
≥ 50%: all assays above

CCN(C)/C=N/c1cc(Br)c(OCCC(C)C)nc1C [Q.391]
≥ 50%: all assays above

CCN(C)/C=N/c1cc(Br)c(OCc2ccccc2)nc1C [Q.095]
≥ 50%: all assays above

C=C(C)CCCOc1nc(C)c(/N=C/N(C)CC)cc1Br [Q.120]
≥ 50%: all assays above

CCN(C)/C=N/c1cc(Br)c(OC(C)c2ccc3cccnc3c2)nc1C (stereo not drawn) [Q.242]
≥ 50%: all assays above

CCN(C)/C=N/c1cc(Br)c(OCCCc2ccc(OC)cc2)nc1C [Q.014]
≥ 50%: all assays above

CCN(C)/C=N/c1cc(Br)c(OC2Cc3ccc(OCc4ccns4)cc3C2)nc1C (stereo not drawn) [Q.144]
≥ 50%: all assays above
